Measurements reported in PubChem BioAssay AID179 (DTP/NCI, 2004).
Values joined by “and” are separate entries in the source; they are usually repeats but may differ in a detail not shown here. Equal values may be shown once. Active and inactive are the calls of the source.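 The calls were made as follows: active = compounds giving half or more protection of infected cells from virus-caused growth loss, again on retest; inactive = the rest.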

Tested on: CEM cells HIV-1 protection, formazan growth assay
Assay: NCI AIDS Antiviral Assay
Details: for IC50: measured here: growth of uninfected CEM cells
In short: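 Human CEM cells, uninfected and HIV-1-infected, received five drug concentrations, and growth was read by soluble formazan assay. Compounds giving at least 50% protection were retested; reproducible 100% protection defined confirmed active.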

**Q.** CC1(C)OC(=O)C(C(N)=O)=C1/C=C1\OC(=O)c2ccccc21 was tested. Which EC50 did it give?
**A.** > 24 µM

**Q.** What about the IC50 of the same molecule?
**A.** > 24 µM

**Q.** For Nc1ccc(C(=O)Nn2c(-c3ccccc3)nc3ccccc3c2=O)cc1, which EC50 is on record?
**A.** > 200 µM

**Q.** What about the IC50 of the same molecule?
**A.** > 200 µM

**Q.** Which results are given for CC[P+](CC)(c1ccccc1)c1ccccc1?
**A.** EC50: > 676 µM; IC50: 95.5 µM

**Q.** How did the EC50 turn out when Nc1n[n+](CC(=O)c2ccccc2)c2sc(-c3ccccc3)nn12 was run?
**A.** > 200 µM

**Q.** And the IC50?
**A.** 45.7 µM

**Q.** With CCCCCCC/C=N/[N-]C(=O)c1ccncc1.CCCCCCC/C=N\[N-]C(=O)c1ccncc1.[Ni+2] as the molecule, how does the EC50 read?
**A.** > 100 µM

**Q.** And the IC50?
**A.** 64.6 µM

**Q.** Which outcome does the source give for COc1ccc(OC(=O)N2C/C(=C\c3ccccc3)C(=O)/C(=C/c3ccccc3)C2)cc1 here?
**A.** inactive

**Q.** COc1cc(CNc2nc3ccccc3nc2-c2cccs2)cc(OC)c1OC was tested. Which EC50 did it give?
**A.** > 200 µM

**Q.** What about the IC50 of the same molecule?
**A.** 14.8 µM

**Q.** For COc1cc(/C=C2\C=Cc3ccccc32)cc(OC)c1OC, which EC50 is on record?
**A.** > 24.5 µM

**Q.** What about the IC50 of the same molecule?
**A.** > 24.5 µM

**Q.** Which results are given for O=C1N=C(C=c2ccc(=Cc3[nH]c(=O)[nH]c3O)cc2)C(=O)N1?
**A.** EC50: 132 µM; IC50: > 200 µM

**Q.** With CC(C)(C)N/N=C(\Cc1occc(=O)c1O)C(=O)Nc1ccc([N+](=O)[O-])cc1[N+](=O)[O-] as the molecule, how does the EC50 read?
**A.** > 158 µM

**Q.** And the IC50?
**A.** > 158 µM

**Q.** For COC1(CC[C@@H](C)COC2OC(CO)C(O)C(O)C2O)O[C@H]2C[C@H]3[C@@H]4CC=C5C[C@@H](OC6OC(CO)C(O)C(OC7OC(CO)C(O)C(O)C7O)C6OC6OC(C)C(O)C(O)C6O)CC[C@]5(C)[C@H]4CC[C@]3(C)[C@H]2[C@@H]1C (stereo partly drawn), which EC50 is on record?
**A.** > 200 µM

**Q.** And the IC50?
**A.** 3.31 µM

**Q.** For CCOP(=O)(OCC)C(F)(F)Cc1cnc(C)c2c1COC(C)(C)O2, which EC50 is on record?
**A.** > 200 µM

**Q.** And the IC50?
**A.** > 200 µM

**Q.** Which EC50 does the source give for COc1ccc2c(=O)c(-c3ccc(OC)c(OC)c3OCc3ccccc3)coc2c1 here?
**A.** > 200 µM

**Q.** What about the IC50 of the same molecule?
**A.** 69.2 µM

**Q.** How did the outcome turn out when O=C1CC(c2ccccc2)n2cccc21 (stereo not drawn) was run?
**A.** inactive

**Q.** What does the source list for C=CCOc1ccc(/C(N=Nc2ccc([N+](=O)[O-])cc2)=N/NC(=O)c2ccccc2)cc1OC?
**A.** EC50: > 200 µM; IC50: 178 µM

**Q.** For Cc1c(Cl)nc(Nc2nc3ccccc3[nH]2)nc1Cl, which outcome is on record?
**A.** inactive

**Q.** Nc1nc(=O)nc2[nH]c3c4cccc5cccc(c3nc12)c54 was tested. Which EC50 did it give?
**A.** > 200 µM

**Q.** What about the IC50 of the same molecule?
**A.** 141 µM and > 200 µM

**Q.** How did the EC50 turn out when CCOC(=O)c1cn2c3c(cccc3c1=O)CC2 was run?
**A.** > 132 µM

**Q.** And the IC50?
**A.** > 132 µM

**Q.** What does the source list for Cc1c(C#N)c2n(c1C)CCN2?
**A.** EC50: > 1550 µM; IC50: > 1550 µM

**Q.** Which results are given for CN(C)c1cc2ccccc2oc1=O?
**A.** EC50: > 692 µM; IC50: > 692 µM

**Q.** Which EC50 does the source give for CCCCNC1=C(C(=O)OCC)/C(=N/NC(=O)c2ccccc2O)CO1 here?
**A.** > 83.2 µM

**Q.** What about the IC50 of the same molecule?
**A.** 13.2 µM

**Q.** Which outcome does the source give for O=C1/C(=C/c2ccccc2)CN(C(=O)OCC(Cl)(Cl)Cl)C/C1=C\c1ccccc1 here?
**A.** inactive

**Q.** Which results are given for O=C=Nc1cccc(S(=O)(=O)c2cccc(N=C=O)c2)c1?
**A.** EC50: > 200 µM; IC50: > 200 µM

**Q.** Which EC50 does the source give for CCC(C)SC1SCC2C(=O)N(C)C3(CC3C)C(=O)OCC(NC(=O)c3nc4ccccc4cc3O)C(=O)NC(C)C(=O)N(C)C1C(=O)N(C)C1(CC1C)C(=O)OCC(NC(=O)c1nc3ccccc3cc1O)C(=O)NC(C)C(=O)N2C (stereo not drawn) here?
**A.** > 0.02 µM

**Q.** What about the IC50 of the same molecule?
**A.** 8.71e-05 µM

**Q.** With COC(=O)C(C(=O)C(=O)Nc1nc2ccc([N+](=O)[O-])cc2s1)c1nc2ccc(Cl)cc2[nH]c1=O (stereo not drawn) as the molecule, how does the EC50 read?
**A.** > 51.3 µM

**Q.** What about the IC50 of the same molecule?
**A.** > 51.3 µM

**Q.** Which outcome does the source give for O=C1c2c(c3c4ccccc4n(CC4CO4)c3c3[nH]c4ccccc4c23)C(=O)N1Cc1ccccc1 (stereo not drawn) here?
**A.** inactive

**Q.** For CCN(CC)C(=O)c1c2nc3c(C(=O)N(CC)CC)ccc(C)c3oc-2c(C)c(=O)c1N, which EC50 is on record?
**A.** > 200 µM

**Q.** And the IC50?
**A.** 83.2 µM

**Q.** With CCOP(=O)(OCC)/C(C#N)=C/c1cccn1Cc1ccccc1 as the molecule, how does the EC50 read?
**A.** > 200 µM

**Q.** And the IC50?
**A.** 25.1 µM

**Q.** How did the outcome turn out when CCS[C@]1(C)C(=O)c2ccccc2C(=O)[C@@]1(C)O was run?
**A.** inactive

**Q.** With COc1ccc(N=Cc2ccc(N(CCC#N)S(=O)(=O)c3ccccc3)cc2C)cc1 as the molecule, how does the EC50 read?
**A.** > 219 µM

**Q.** What about the IC50 of the same molecule?
**A.** 112 µM

**Q.** With CNC(=O)NC(CCCCNC(=O)OCc1ccccc1)C(=O)OCc1ccccc1 (stereo not drawn) as the molecule, how does the EC50 read?
**A.** > 83.2 µM

**Q.** And the IC50?
**A.** 39.8 µM

**Q.** With COC(=O)C1=C(c2ccc(Cl)cc2)C(O)N=C(NN)N1 (stereo not drawn) as the molecule, how does the EC50 read?
**A.** > 832 µM

**Q.** What about the IC50 of the same molecule?
**A.** > 832 µM

**Q.** How did the EC50 turn out when O=C(CC(=O)Nc1cccc(Cl)c1)NNCC(=O)Nc1nnc(-c2ccccc2)s1 was run?
**A.** > 22.4 µM

**Q.** What about the IC50 of the same molecule?
**A.** > 22.4 µM

**Q.** How did the EC50 turn out when COc1ccc(C(=C(Cl)c2ccccc2)c2ccc(OC)cc2)cc1 was run?
**A.** > 200 µM

**Q.** What about the IC50 of the same molecule?
**A.** 47.9 µM

**Q.** CC1=C(N(C)C)C(=O)c2nc3n(c2C1=O)CCC3OC(N)=O (stereo not drawn) was tested. Which EC50 did it give?
**A.** > 200 µM

**Q.** And the IC50?
**A.** 11.2 µM

**Q.** O=Cc1ccccc1COC(=O)c1cc(C(=O)OCc2ccccc2C=O)c(C(=O)OCc2ccccc2C=O)cc1C(=O)OCc1ccccc1C=O was tested. Which EC50 did it give?
**A.** > 0.759 µM

**Q.** What about the IC50 of the same molecule?
**A.** > 0.759 µM

**Q.** Which results are given for O=C(/C=C\c1cccc2ccccc12)c1ccc(Br)cc1?
**A.** EC50: > 3.09 µM; IC50: > 3.09 µM

**Q.** How did the EC50 turn out when Cc1cc2nc3ccccc3n2c2nc(N)ccc12 was run?
**A.** > 200 µM

**Q.** And the IC50?
**A.** 6.61 µM

**Q.** How did the outcome turn out when O=P(O)(O)C1CCCC(P(=O)(O)O)N1 (stereo not drawn) was run?
**A.** inactive

**Q.** Which results are given for N#C/C1=C(\C#N)CCC2(C#N)C3C=CC(O3)C2(C#N)CC1 (stereo not drawn)?
**A.** EC50: > 295 µM; IC50: 34.7 µM

**Q.** With CCOC(=O)C(CCC(N)=O)(CCC(=O)OC)C(=O)OCC as the molecule, how does the EC50 read?
**A.** > 200 µM

**Q.** What about the IC50 of the same molecule?
**A.** > 200 µM

**Q.** Which EC50 does the source give for CCCCc1ccc(Nc2cc(=O)n(C)c(=O)[nH]2)cc1 here?
**A.** > 200 µM

**Q.** What about the IC50 of the same molecule?
**A.** > 200 µM

**Q.** How did the EC50 turn out when CCc1c(O)c2c(c(O)c1C(C)=O)C(=O)c1c(cc(O)c(C(=O)O)c1C(=O)O)C2=O was run?
**A.** > 33.1 µM

**Q.** What about the IC50 of the same molecule?
**A.** > 33.1 µM

**Q.** Which EC50 does the source give for O=C(c1ccccc1)c1ccc2cccc(O)c2n1 here?
**A.** > 75.9 µM

**Q.** And the IC50?
**A.** 50.1 µM

**Q.** What does the source list for CCOC(=O)CN1CCC(C2(c3cc4ccccc4[nH]3)OCCO2)CC1?
**A.** EC50: > 363 µM; IC50: > 363 µM

**Q.** Which results are given for CC(=O)Nc1c(C#N)c2n(c1C(=O)Nc1ccccc1)CCCC2?
**A.** EC50: > 200 µM; IC50: > 200 µM

**Q.** Cn1c2ccccc2c2nnc(NCCCCO)nc21 was tested. Which EC50 did it give?
**A.** > 200 µM

**Q.** What about the IC50 of the same molecule?
**A.** > 200 µM

**Q.** What does the source list for CC(=O)c1c(O)c2c(c(C(C)=O)c1O)OC(C)(C)C=C2?
**A.** EC50: > 9.55 µM; IC50: > 9.55 µM

**Q.** How did the EC50 turn out when Cc1cc(O)c(/C=N/c2nc(-c3cccc([N+](=O)[O-])c3)cs2)c(=O)o1 was run?
**A.** > 200 µM

**Q.** And the IC50?
**A.** 35.5 µM

**Q.** With CC(C)(Oc1ccc(C(=O)c2ccc(Cl)cc2)cc1Cl)C(=O)N1CCN(CCO)CC1 as the molecule, how does the EC50 read?
**A.** > 200 µM

**Q.** What about the IC50 of the same molecule?
**A.** 4.47 µM

**Q.** For CN1C(=O)CN=C(c2ccc[nH]2)c2cc(Cl)ccc21 (tested in a mixture with another compound), which EC50 is on record?
**A.** 11.2 µM

**Q.** What about the IC50 of the same molecule?
**A.** 79.4 µM

**Q.** How did the outcome turn out when COc1c(C(=O)NCCN(CCNC(=O)c2cccc(-c3cccc(C(=O)N(C)C)c3OC)c2OC)CCNC(=O)c2cccc(-c3cccc(C(=O)N(C)C)c3OC)c2OC)cccc1-c1cccc(C(=O)N(C)C)c1OC was run?
**A.** inactive

**Q.** CC(=O)Oc1c(OC(C)=O)c(C=O)c2c(OC(C)=O)c(-c3c(C)cc4c(C(C)C)c(OC(C)=O)c(OC(C)=O)c(C=O)c4c3OC(C)=O)c(C)cc2c1C(C)C was tested. Which EC50 did it give?
**A.** > 200 µM

**Q.** What about the IC50 of the same molecule?
**A.** 8.91 µM

**Q.** COC1=C(C2(O)C(=O)N(C)c3ccccc32)C(=O)C(OC)=C(C2(O)C(=O)N(C)c3ccccc32)C1=O (stereo not drawn) was tested. Which EC50 did it give?
**A.** > 53.7 µM

**Q.** What does the source list for NC(=O)c1c[se]c(C2OC(COP(=O)(O)CP(=O)(O)OCC3OC(n4cnc5c(N)ncnc54)C(O)C3O)C(O)C2O)n1 (stereo not drawn)?
**A.** EC50: > 100 µM; IC50: 16.6 µM

**Q.** For Cc1cc(=O)c2c(O)cc3c(c2o1)CC=C(COC1OC(COC2OC(CO)C(O)C(O)C2O)C(O)C(O)C1O)CO3 (stereo not drawn), which EC50 is on record?
**A.** > 417 µM

**Q.** What about the IC50 of the same molecule?
**A.** > 417 µM

**Q.** How did the EC50 turn out when CNC(=O)CNC(=O)c1ccccc1SC(=O)CCCC[n+]1ccccc1 was run?
**A.** 1.95 µM

**Q.** And the IC50?
**A.** 22.9 µM

**Q.** Which results are given for c1ccc(N/N=C2\CC(c3ccccc3)Oc3ccccc32)cc1 (stereo not drawn)?
**A.** EC50: > 200 µM; IC50: 22.4 µM

**Q.** With O=S(O)CCCSSc1ccccc1 as the molecule, how does the outcome read?
**A.** inactive
